Laboratory results: US20090215884A1, “METHOD FOR WOUND HEALING” (priority 2005, published 2009)

Tests used:
fibroblasts = assay: Cytokine production by PEP005-treated human fibroblasts; format: cell-based; settings: 6 h, supernatant
Method: Cytokine production by PEP005-treated human cells Confluent cultures of Me10538 cells, keratinocytes, fibroblasts and neutrophils were incubated for 6 h in the absence or presence of PEP005 (1-100 ng/ml). The supernatants were harvested and analyzed for the presence of the following cytokines; TNF-α, IL-6 and IL-8 using a multiplex detection kit (Biosource International, Nivelles, Belgium). Units of detected proteins are pg/ml.

[1] = system: rat full-thickness incisional wounds; assay: Rat incisional wound healing model: tensiometric assessment of wound strength; format: in vivo; settings: single topical treatment
From the text: In order to examine the effects of PEP005 on the repair of acute (surgical) incisional wounds, involving minimal new tissue generation, the rat, full-thickness incisional wound healing model, was employed.
Adult male Sprague Dawley rats (Harlan U.K. Ltd., Oxfordshire, U.K.), approximately 8-10 weeks old and weighing between 250-300 g, were used in this study. The animals were initially housed in groups of up to four per cage (cage dimensions 40×25×20 cm, with sawdust bedding, changed twice weekly), according to Home Office regulations, in an environment maintained at an ambient temperature of 23° C. with 12-hour light/dark cycles. The animals were provided food (Standard Rodent Diet) and water ad libitum. In order to acclimatize the animals to their surroundings, prior to experimentation, the animals were housed for a minimum of one week without disturbance, other than to refresh their bedding and to replenish their food and water provisions. Following wounding, animals were monitored under individual housed conditions until fully recovered from the procedure. Animals were then maintained individually for a period of 2 weeks (i.e. until their wounds have fully re-epithelialized). After this initial 2-week period, animals were maintained in groups of up to four for the remainder of the study. All animal procedures were performed in a Home Office licensed establishment, under U.K. Home Office Licences (PPL: 40/2650; PIL: 70/4934 and PIL: 60/7661).
Animals were anaesthetized using inhalation of Halothane and air, and the dorsum of each rat shaved and washed with the bactericide, chlorhexidine gluconate (0.05% aqueous). Four full-thickness incisional wounds (1 cm in length, include the panniculus carnosus and hypodermis) were created on the backs of each animal. Wounds remained unsutured (allowed to gape), in order to allow granulation tissue to form within the wounds. Following wounding (day 0), one of the four PEP005 concentrations (PEP005-free, DMSO/isopropanol gel vehicle, 0.01%, 0.028% or 0.05% PEP005) were applied to each wound, whilst non-treated wound controls remained untreated. […]
Immediately after injury, single treatments of the 0.01%, 0.028% PEP005, or DMSO/isopropanol vehicle gels, were applied at volumes of 10 μl per 100 mm^2 (1 μg/10 μl, 2.8 μg/10 μl and 5 μg/10 μl PEP005, respectively), to the marginal skin surrounding each wound, with a total area of 600 mm^2 of marginal skin receiving treatment. […] Rats were maintained in their respective experimental groups for 1, 4 and 12 weeks, when the animals in each group were euthanized and the condition of wound and peri-wound tissues (in terms of viability, erythema, oedema, etc.), monitored at all assessment points, according to Table 2.1. […]

`C/C=C(/C)C(=O)O[C@H]1C(C)=C[C@]23C(=O)[C@@H](C=C(CO)[C@@H](O)[C@]12O)[C@H]1[C@@H](C[C@H]3C)C1(C)C` [PEP005, ingenol-3-angelate] was tested, and the IL-6 (fibroblasts; PEP005 1 ng/ml) was 81 ± 4 pg/mL, the IL-8 (fibroblasts; PEP005 1 ng/ml) was 79 ± 3 pg/mL and the IL-6 (fibroblasts; PEP005 5 ng/ml) was 85 ± 4 pg/mL. The IL-8 (fibroblasts; PEP005 5 ng/ml) was 160 ± 14 pg/mL, the IL-6 (fibroblasts; PEP005 10 ng/ml) was 141 ± 6 pg/mL and the IL-8 (fibroblasts; PEP005 10 ng/ml) was 215 ± 12 pg/mL. The IL-6 (fibroblasts; PEP005 100 ng/ml) was 205 ± 5 pg/mL, the IL-8 (fibroblasts; PEP005 100 ng/ml) was 239 ± 9 pg/mL and the “mean tensile strength of wound” value ([1]; week 4, 0.01%, 0.028%, 0.05% PEP005 gel) was “dose dependent trend, with increasing tensile strength”. The “mean tensile strength of wound” value ([1]; week 12, 0.01% PEP005 gel) was “increasing”, the “mean tensile strength of wound” value ([1]; week 12, 0.028% PEP005 gel) was “declining at 0.028% to control levels” and the “mean tensile strength of wound” value ([1]; week 12, 0.05% PEP005 gel) was “another increase”.
